Values belong to the compound of their own block, whether it stands above or below them.
Target: T1, human CB2R (Homo sapiens, UniProt P34972)
T1 construct: host or cells: CHO cells
Test: CB2R mediated modulation of cAMP synthesis
Format: cell-based
Settings: found through the use of the above described assays (binding and cAMP); CHO cells expressing human CB2R, forskolin-stimulated cAMP
Summary of the method: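 CHO cells expressing human CB2R were treated for 30 min at 37 °C with compound in buffer containing 1 mM IBMX, 0.25% BSA and 10 uM forskolin. cAMP was measured after lysis. EC50 is the concentration giving 50% inhibition of forskolin-stimulated cAMP, scaled to the level set by 1 uM CP55940, fitted by four-parameter logistic.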

T1 sequence (P34972 whole entry): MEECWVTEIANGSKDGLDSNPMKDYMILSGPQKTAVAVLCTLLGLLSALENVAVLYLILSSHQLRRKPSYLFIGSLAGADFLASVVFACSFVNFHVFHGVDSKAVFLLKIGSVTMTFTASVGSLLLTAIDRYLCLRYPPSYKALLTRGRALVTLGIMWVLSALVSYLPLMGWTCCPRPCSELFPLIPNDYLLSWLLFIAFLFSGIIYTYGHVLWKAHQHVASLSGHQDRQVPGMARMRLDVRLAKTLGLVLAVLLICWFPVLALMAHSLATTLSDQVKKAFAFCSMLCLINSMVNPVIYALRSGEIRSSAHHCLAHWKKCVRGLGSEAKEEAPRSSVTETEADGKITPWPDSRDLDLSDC

SMILES: CC(C)(C(=O)Nc1ccccc1Cl)S(=O)(=O)c1ccc(C(F)(F)F)cc1 [N-(2-Chloro-phenyl)-2-methyl-2-(4-trifluoromethyl-benzenesulfonyl)-propionamide]
agonistic activity: agonistic activity

SMILES: CC(C)(C)c1ccccc1NC(=O)C(C)(C)S(=O)(=O)c1ccc(Cl)cc1 [N-(2-tert-Butyl-phenyl)-2-(4-chloro-benzenesulfonyl)-2-methyl-propionamide]
agonistic activity: agonistic activity

SMILES: CC(C)(C)c1cc(NC(=O)C(C)(C)S(=O)(=O)c2ccc(Cl)cc2)ccn1 [N-(2-tert-butylpyridin-4-yl)-2-[(4-chlorophenyl)sulfonyl]-2-methylpropanamide]
agonistic activity: agonistic activity

SMILES: CC(C)c1cc(NC(=O)C(C)(C)S(=O)(=O)c2ccc(C(F)(F)F)nc2)n(C)n1 [N-(3-isopropyl-1-methyl-1H-pyrazol-5-yl)-2-methyl-2-{[6-(trifluoromethyl)pyridin-3-yl]sulfonyl}propanamide]
agonistic activity: agonistic activity

SMILES: CCC(C)c1cc(NC(=O)C(C)(C)S(=O)(=O)c2ccc(Cl)cc2)on1 (centres unmarked) [N-(3-sec-Butyl-isoxazol-5-yl)-2-(4-chloro-benzenesulfonyl)-2-methyl-propionamide]
agonistic activity: agonistic activity

SMILES: CC(C)(C)c1cc(NC(=O)C(C)(C)S(=O)(=O)c2ccc(F)cc2F)on1 [N-(3-tert-Butyl-isoxazol-5-yl)-2-(2,4-difluoro-benzenesulfonyl)-2-methyl-propionamide]
agonistic activity: agonistic activity

SMILES: CC(C)(C)c1cc(NC(=O)C(C)(C)S(=O)(=O)c2cc(F)ccc2F)on1 [N-(3-tert-Butyl-isoxazol-5-yl)-2-(2,5-difluoro-benzenesulfonyl)-2-methyl-propionamide]
agonistic activity: agonistic activity

SMILES: Cc1ccc(S(=O)(=O)C(C)(C)C(=O)Nc2cc(C(C)(C)C)no2)cc1F [N-(3-tert-Butyl-isoxazol-5-yl)-2-(3-fluoro-4-methyl-benzenesulfonyl)-2-methyl-propionamide]
agonistic activity: agonistic activity

SMILES: CC(C)(C)c1cc(NC(=O)C(C)(C)S(=O)(=O)c2ccc(Cl)cc2F)on1 [N-(3-tert-Butyl-isoxazol-5-yl)-2-(4-chloro-2-fluoro-benzenesulfonyl)-2-methyl-propionamide]
agonistic activity: agonistic activity

SMILES: CC(C)(C)c1cc(NC(=O)C(C)(C)S(=O)(=O)c2ccc(Cl)cc2)on1 [N-(3-tert-Butyl-isoxazol-5-yl)-2-(4-chloro-benzenesulfonyl)-2-methyl-propionamide]
agonistic activity: agonistic activity

SMILES: CC(C)(C)c1cc(NC(=O)C(C)(C)S(=O)(=O)c2ccc(F)cc2)on1 [N-(3-tert-Butyl-isoxazol-5-yl)-2-(4-fluoro-benzenesulfonyl)-2-methyl-propionamide]
agonistic activity: agonistic activity

SMILES: COc1ccc(S(=O)(=O)C(C)(C)C(=O)Nc2cc(C(C)(C)C)no2)cc1 [N-(3-tert-Butyl-isoxazol-5-yl)-2-(4-methoxy-benzenesulfonyl)-2-methyl-propionamide]
agonistic activity: agonistic activity

SMILES: CC(C)(C)c1cc(NC(=O)C(C)(C)S(=O)(=O)c2ccc(C(F)(F)F)cc2)on1 [N-(3-tert-Butyl-isoxazol-5-yl)-2-methyl-2-(4-trifluoromethyl-benzenesulfonyl)-propionamide]
agonistic activity: agonistic activity

SMILES: Cc1ccc(S(=O)(=O)C(C)(C)C(=O)Nc2cc(C(C)(C)C)no2)cc1 [N-(3-tert-Butyl-isoxazol-5-yl)-2-methyl-2-(toluene-4-sulfonyl)-propionamide]
agonistic activity: agonistic activity

SMILES: CC(C)(C)c1cccc(NC(=O)C(C)(C)S(=O)(=O)c2ccc(Cl)cc2)c1 [N-(3-tert-Butyl-phenyl)-2-(4-chloro-benzenesulfonyl)-2-methyl-propionamide]
agonistic activity: agonistic activity

SMILES: CC(C)(C)c1cc(NC(=O)C(C)(C)S(=O)(=O)c2ccc(C(F)(F)F)nc2)on1 [N-(3-tert-butylisoxazol-5-yl)-2-methyl-2-{[6-(trifluoromethyl)pyridin-3-yl]sulfonyl}propanamide]
agonistic activity: agonistic activity

SMILES: CC(C)(C(=O)Nc1nc(C2CC2)cs1)S(=O)(=O)c1ccc(S(C)(=O)=O)cc1 [N-(4-cyclopropyl-1,3-thiazol-2-yl)-2-methyl-2-{[4-(methylsulfonyl)phenyl]sulfonyl}propanamide]
agonistic activity: agonistic activity

SMILES: CCc1ccnc(NC(=O)C(C)(C)S(=O)(=O)c2ccc(C(F)(F)F)nc2)c1 [N-(4-ethylpyridin-2-yl)-2-methyl-2-{[6-(trifluoromethyl)pyridin-3-yl]sulfonyl}propanamide]
agonistic activity: agonistic activity

SMILES: CC(C)(C)c1csc(NC(=O)C(C)(C)S(=O)(=O)c2ccc(Cl)cc2Cl)n1 [N-(4-tert-Butyl-thiazol-2-yl)-2-(2,4-dichloro-benzenesulfonyl)-2-methyl-propionamide]
agonistic activity: agonistic activity

SMILES: CC(C)(C)c1csc(NC(=O)C(C)(C)S(=O)(=O)c2ccc(Cl)cc2F)n1 [N-(4-tert-Butyl-thiazol-2-yl)-2-(4-chloro-2-fluoro-benzenesulfonyl)-2-methyl-propionamide]
agonistic activity: agonistic activity

SMILES: CC(C)(C)c1csc(NC(=O)C(C)(C)S(=O)(=O)c2ccc(F)cc2)n1 [N-(4-tert-Butyl-thiazol-2-yl)-2-(4-fluoro-benzenesulfonyl)-2-methyl-propionamide]
agonistic activity: agonistic activity

SMILES: CC(C)(C)c1csc(NC(=O)C(C)(C)S(=O)(=O)c2ccc(Cl)nc2)n1 [N-(4-tert-Butyl-thiazol-2-yl)-2-(6-chloro-pyridine-3-sulfonyl)-2-methyl-propionamide]
agonistic activity: agonistic activity

SMILES: CC(C)(C)c1csc(NC(=O)C(C)(C)S(=O)(=O)c2cccc(C(F)(F)F)c2)n1 [N-(4-tert-Butyl-thiazol-2-yl)-2-methyl-2-(3-trifluoromethyl-benzenesulfonyl)-propionamide]
agonistic activity: agonistic activity

SMILES: CC(C)(C)c1csc(NC(=O)C(C)(C)S(=O)(=O)c2ccc(C(F)(F)F)cc2)n1 [N-(4-tert-Butyl-thiazol-2-yl)-2-methyl-2-(4-trifluoromethyl-benzenesulfonyl)-propionamide]
agonistic activity: agonistic activity

Other lines, results leading:

agonistic activity: agonistic activity
SMILES: Cn1nc(C(C)(C)C)cc1NC(=O)C(C)(C)S(=O)(=O)c1ccc(S(C)(=O)=O)cc1 [N-(3-tert-butyl-1-methyl-1H-pyrazol-5-yl)-2-methyl-2-{[4-(methylsulfonyl)phenyl]sulfonyl}propanamide]

agonistic activity: agonistic activity
SMILES: CC(C)(C)c1cccc(NC(=O)C(C)(C)S(=O)(=O)c2ccc(Cl)cc2F)c1 [N-(3-tert-butylphenyl)-2-[(4-chloro-2-fluorophenyl)sulfonyl]-2-methylpropanamide]

agonistic activity: agonistic activity
SMILES: CC(C)(C)c1cccc(NC(=O)C(C)(C)S(=O)(=O)c2ccc(C(F)(F)F)nc2)c1 [N-(3-tert-butylphenyl)-2-methyl-2-{[6-(trifluoromethyl)pyridin-3-yl]sulfonyl}propanamide]

agonistic activity: agonistic activity
SMILES: COc1ccc(S(=O)(=O)C(C)(C)C(=O)Nc2nc(C3CCCCC3)cs2)cc1 [N-(4-cyclohexyl-1,3-thiazol-2-yl)-2-[(4-methoxyphenyl)sulfonyl]-2-methylpropanamide]

agonistic activity: agonistic activity
SMILES: CC(C)(C(=O)Nc1nc(C2CCCCC2)cs1)S(=O)(=O)c1ccc(S(C)(=O)=O)cc1 [N-(4-cyclohexyl-1,3-thiazol-2-yl)-2-methyl-2-{[4-(methylsulfonyl)phenyl]sulfonyl}propanamide]

agonistic activity: agonistic activity
SMILES: CCc1ccnc(NC(=O)C(C)(C)S(=O)(=O)c2ccc(S(C)(=O)=O)cc2)c1 [N-(4-ethylpyridin-2-yl)-2-methyl-2-{[4-(methylsulfonyl)phenyl]sulfonyl}propanamide]

agonistic activity: agonistic activity
SMILES: Cc1sc(NC(=O)C(C)(C)S(=O)(=O)c2ccc(Cl)cc2)nc1C(C)(C)C [N-(4-tert-Butyl-5-methyl-thiazol-2-yl)-2-(4-chloro-benzenesulfonyl)-2-methyl-propionamide]

agonistic activity: agonistic activity
SMILES: CC(C)(C)c1coc(NC(=O)C(C)(C)S(=O)(=O)c2ccc(Cl)cc2)n1 [N-(4-tert-Butyl-oxazol-2-yl)-2-(4-chloro-benzenesulfonyl)-2-methyl-propionamide]

agonistic activity: agonistic activity
SMILES: CC(C)(C)c1ccc(NC(=O)C(C)(C)S(=O)(=O)c2ccc(Cl)cc2)cc1 [N-(4-tert-Butyl-phenyl)-2-(4-chloro-benzenesulfonyl)-2-methyl-propionamide]

agonistic activity: agonistic activity
SMILES: CC(C)(C)c1csc(NC(=O)C(C)(C)S(=O)(=O)c2cc(F)ccc2F)n1 [N-(4-tert-Butyl-thiazol-2-yl)-2-(2,5-difluoro-benzenesulfonyl)-2-methyl-propionamide]

agonistic activity: agonistic activity
SMILES: CC(C)(C)c1csc(NC(=O)C(C)(C)S(=O)(=O)c2ccc(Cl)c(Cl)c2)n1 [N-(4-tert-Butyl-thiazol-2-yl)-2-(3,4-dichloro-benzenesulfonyl)-2-methyl-propionamide]

agonistic activity: agonistic activity
SMILES: CC(C)(C)c1csc(NC(=O)C(C)(C)S(=O)(=O)c2ccc(Cl)cc2)n1 [N-(4-tert-Butyl-thiazol-2-yl)-2-(4-chloro-benzenesulfonyl)-2-methyl-propionamide]

agonistic activity: agonistic activity
SMILES: CC(C)(C)c1csc(NC(=O)C(C)(C)S(=O)(=O)c2ccc(C#N)cc2F)n1 [N-(4-tert-Butyl-thiazol-2-yl)-2-(4-cyano-2-fluoro-benzenesulfonyl)-2-methyl-propionamide]

agonistic activity: agonistic activity
SMILES: COc1ccc(S(=O)(=O)C(C)(C)C(=O)Nc2nc(C(C)(C)C)cs2)cn1 [N-(4-tert-Butyl-thiazol-2-yl)-2-(6-methoxy-pyridine-3-sulfonyl)-2-methyl-propionamide]
